One assay addresses PI3K δ (Homo sapiens, UniProt O00329). Nature of the assay: PI3K δ kinase assay. Format: biochemical.
The target of a further assay is T1, mTOR (Homo sapiens, UniProt P42345).
T1 construct: purchased Invitrogen
The assay can be described thus: mTOR kinase inhibition assay. Format: biochemical.

The subject of the next assay is PC3. The assay can be described thus: PC3 proliferation. The class given is cell-based. The following applies: Homo sapiens, PC-3; for IC50: Table 2.
In a further assay the target is PI3K α (Homo sapiens, UniProt P42336). The assay can be described thus: PI3K α kinase assay. The class given is biochemical.
The target in a further assay is PI3K γ (Homo sapiens, UniProt P48736). The assay can be described thus: PI3K γ kinase assay. Format: biochemical.
A further assay concerns the target PI3K β (Homo sapiens, UniProt P42338). Nature of the assay: PI3K β kinase assay. Format: biochemical.

Molecules are shown by their SMILES. Like-named read-outs stand apart in the source and are kept apart here. Bounds are passed on as bounds.

PI3K β, sequence (P42338 whole entry, species assumed): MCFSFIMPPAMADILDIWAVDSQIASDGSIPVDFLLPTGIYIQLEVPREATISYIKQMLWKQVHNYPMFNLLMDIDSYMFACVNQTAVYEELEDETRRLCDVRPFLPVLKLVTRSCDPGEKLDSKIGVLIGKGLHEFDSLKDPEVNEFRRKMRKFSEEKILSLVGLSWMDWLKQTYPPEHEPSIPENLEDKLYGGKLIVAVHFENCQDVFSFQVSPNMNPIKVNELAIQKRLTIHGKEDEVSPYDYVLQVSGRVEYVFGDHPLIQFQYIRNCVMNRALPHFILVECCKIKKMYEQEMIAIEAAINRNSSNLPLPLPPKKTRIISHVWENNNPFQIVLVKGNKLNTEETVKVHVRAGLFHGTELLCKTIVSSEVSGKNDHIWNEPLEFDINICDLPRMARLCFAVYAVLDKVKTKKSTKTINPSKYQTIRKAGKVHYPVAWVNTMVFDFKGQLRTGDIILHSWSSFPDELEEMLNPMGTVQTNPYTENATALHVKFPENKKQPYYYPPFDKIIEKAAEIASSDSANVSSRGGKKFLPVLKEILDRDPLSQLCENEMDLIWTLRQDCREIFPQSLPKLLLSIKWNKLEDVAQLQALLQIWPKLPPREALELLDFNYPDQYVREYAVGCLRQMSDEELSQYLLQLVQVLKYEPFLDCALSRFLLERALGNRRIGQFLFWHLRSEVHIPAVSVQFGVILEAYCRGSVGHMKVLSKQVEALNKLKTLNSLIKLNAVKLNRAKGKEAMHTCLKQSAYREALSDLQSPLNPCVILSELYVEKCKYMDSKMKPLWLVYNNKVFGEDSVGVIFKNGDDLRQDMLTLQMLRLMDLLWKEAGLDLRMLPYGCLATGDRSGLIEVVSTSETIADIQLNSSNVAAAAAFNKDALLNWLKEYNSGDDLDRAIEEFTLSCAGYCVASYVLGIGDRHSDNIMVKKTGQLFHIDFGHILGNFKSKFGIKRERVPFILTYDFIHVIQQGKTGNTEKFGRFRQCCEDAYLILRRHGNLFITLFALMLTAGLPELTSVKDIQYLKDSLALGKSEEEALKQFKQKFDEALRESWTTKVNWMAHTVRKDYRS
PI3K β, sequence (P27986 whole entry partner, species assumed): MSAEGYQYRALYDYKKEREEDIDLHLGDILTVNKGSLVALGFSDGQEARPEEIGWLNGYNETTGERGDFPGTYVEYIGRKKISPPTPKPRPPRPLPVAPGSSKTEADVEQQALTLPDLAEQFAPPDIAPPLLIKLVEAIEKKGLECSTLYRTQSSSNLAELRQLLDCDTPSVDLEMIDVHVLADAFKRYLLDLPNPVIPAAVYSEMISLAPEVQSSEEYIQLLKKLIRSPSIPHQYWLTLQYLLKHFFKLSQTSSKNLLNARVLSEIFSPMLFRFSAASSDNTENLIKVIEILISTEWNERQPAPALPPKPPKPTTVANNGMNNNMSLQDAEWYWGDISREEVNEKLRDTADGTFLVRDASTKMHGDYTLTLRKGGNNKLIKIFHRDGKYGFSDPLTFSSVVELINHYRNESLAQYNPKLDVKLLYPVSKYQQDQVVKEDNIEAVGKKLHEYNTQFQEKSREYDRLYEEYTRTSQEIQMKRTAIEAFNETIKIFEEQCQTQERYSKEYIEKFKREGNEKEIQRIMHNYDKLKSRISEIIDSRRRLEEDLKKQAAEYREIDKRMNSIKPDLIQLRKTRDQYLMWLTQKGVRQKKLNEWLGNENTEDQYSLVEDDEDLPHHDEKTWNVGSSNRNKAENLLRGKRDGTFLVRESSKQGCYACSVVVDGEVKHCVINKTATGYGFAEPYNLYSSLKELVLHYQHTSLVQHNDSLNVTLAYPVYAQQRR
PI3K δ, sequence (O00329 whole entry, species assumed): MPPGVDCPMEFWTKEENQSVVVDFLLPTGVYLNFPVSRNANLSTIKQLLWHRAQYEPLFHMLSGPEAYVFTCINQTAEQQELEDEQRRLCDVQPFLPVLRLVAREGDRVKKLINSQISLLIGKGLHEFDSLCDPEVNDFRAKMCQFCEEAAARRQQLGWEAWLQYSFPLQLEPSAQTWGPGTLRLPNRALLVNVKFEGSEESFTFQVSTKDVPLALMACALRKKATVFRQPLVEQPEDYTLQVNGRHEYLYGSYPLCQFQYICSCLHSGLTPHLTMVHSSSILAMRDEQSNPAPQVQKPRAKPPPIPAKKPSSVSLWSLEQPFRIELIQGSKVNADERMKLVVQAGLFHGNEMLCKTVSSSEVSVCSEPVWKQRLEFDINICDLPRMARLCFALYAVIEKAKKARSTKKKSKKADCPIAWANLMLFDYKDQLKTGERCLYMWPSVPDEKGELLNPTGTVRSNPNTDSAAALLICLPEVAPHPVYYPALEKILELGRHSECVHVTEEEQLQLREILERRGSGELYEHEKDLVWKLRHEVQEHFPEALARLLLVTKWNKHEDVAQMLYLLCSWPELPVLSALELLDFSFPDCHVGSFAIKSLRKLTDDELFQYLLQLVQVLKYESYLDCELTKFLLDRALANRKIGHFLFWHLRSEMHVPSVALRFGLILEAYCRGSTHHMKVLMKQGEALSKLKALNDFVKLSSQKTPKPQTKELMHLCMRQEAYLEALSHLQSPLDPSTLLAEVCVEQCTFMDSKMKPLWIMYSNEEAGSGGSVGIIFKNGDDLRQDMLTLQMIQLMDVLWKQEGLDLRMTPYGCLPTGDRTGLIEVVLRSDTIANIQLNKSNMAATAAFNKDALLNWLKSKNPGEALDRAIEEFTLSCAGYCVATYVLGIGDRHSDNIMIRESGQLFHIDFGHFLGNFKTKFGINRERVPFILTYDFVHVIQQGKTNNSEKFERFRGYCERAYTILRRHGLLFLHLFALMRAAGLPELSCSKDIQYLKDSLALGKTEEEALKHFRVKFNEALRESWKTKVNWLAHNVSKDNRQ
PI3K δ, sequence (P27986 whole entry partner, species assumed): as the sequence (P27986 whole entry partner, species assumed) above
PI3K α, sequence (P42336 whole entry, species assumed): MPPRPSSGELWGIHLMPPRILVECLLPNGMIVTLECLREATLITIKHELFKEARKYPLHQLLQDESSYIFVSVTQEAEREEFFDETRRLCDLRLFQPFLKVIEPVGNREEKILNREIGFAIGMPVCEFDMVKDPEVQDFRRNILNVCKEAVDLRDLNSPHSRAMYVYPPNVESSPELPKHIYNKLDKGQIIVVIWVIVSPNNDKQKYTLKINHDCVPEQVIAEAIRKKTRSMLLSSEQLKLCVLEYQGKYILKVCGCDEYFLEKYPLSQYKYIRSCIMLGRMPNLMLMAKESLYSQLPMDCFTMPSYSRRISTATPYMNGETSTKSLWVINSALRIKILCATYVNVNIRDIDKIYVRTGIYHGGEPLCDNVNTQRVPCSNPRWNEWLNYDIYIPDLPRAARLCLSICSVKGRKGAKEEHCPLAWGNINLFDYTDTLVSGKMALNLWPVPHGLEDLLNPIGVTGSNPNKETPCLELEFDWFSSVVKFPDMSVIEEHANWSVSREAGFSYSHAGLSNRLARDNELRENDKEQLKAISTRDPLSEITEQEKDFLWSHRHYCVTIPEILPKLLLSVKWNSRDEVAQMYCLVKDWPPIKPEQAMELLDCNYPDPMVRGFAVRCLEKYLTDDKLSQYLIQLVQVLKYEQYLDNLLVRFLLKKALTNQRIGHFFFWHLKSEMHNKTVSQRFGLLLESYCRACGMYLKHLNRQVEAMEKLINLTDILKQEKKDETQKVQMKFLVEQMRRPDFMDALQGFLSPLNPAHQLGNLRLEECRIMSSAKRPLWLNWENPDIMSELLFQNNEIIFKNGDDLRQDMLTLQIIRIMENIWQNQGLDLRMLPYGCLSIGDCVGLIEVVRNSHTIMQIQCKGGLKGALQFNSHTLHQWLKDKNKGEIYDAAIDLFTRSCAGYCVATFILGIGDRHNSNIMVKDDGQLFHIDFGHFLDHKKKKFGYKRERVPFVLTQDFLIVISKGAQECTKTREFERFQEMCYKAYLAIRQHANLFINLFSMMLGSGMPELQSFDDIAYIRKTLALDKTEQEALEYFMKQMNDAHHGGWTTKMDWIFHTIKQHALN
PI3K α, sequence (P27986 whole entry partner, species assumed): as the sequence (P27986 whole entry partner, species assumed) above
PI3K γ, sequence (P48736 whole entry, species assumed): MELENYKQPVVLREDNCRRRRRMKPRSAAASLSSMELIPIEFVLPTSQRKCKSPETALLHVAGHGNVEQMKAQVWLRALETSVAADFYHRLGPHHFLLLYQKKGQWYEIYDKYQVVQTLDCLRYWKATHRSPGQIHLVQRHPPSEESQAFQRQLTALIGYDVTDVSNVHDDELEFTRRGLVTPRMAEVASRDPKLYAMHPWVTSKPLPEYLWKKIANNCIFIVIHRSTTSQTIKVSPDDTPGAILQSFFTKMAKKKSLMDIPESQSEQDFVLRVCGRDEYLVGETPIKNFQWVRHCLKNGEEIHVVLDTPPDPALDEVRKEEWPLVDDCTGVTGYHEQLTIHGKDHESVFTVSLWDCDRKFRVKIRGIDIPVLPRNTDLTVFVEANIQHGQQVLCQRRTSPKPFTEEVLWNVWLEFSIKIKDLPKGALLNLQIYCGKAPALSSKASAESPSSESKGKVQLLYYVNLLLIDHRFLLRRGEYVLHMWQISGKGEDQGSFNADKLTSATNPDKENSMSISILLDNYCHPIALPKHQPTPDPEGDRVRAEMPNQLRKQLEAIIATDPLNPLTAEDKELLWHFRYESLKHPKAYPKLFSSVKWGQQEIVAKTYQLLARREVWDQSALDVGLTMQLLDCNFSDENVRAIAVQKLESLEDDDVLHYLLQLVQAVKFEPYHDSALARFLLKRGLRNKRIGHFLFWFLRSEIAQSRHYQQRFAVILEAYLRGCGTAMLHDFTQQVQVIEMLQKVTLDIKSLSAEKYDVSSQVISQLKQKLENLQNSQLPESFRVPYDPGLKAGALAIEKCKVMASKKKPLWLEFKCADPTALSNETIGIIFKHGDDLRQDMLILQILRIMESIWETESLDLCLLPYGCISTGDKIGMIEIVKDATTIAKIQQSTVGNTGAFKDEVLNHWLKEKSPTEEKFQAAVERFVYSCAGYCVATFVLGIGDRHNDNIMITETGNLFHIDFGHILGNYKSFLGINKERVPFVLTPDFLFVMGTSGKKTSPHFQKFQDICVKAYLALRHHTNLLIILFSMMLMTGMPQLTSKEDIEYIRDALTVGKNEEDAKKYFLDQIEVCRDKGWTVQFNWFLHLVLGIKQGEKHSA
Method for mTOR: The compounds described herein and any other mTorC1/mTorC2 inhibitors known in the art can be tested against recombinant mTOR (Invitrogen) in an assay containing 50 mM HEPES, pH 7.5, 1 mM EGTA, 10 mM MgCl2, 2.5 mM, 0.01% Tween, 10 μM ATP (2.5 μCi of μ-32P-ATP), and 3 mg/mL BSA. Rat recombinant PHAS-1/4EBP1 (Calbiochem; 2 mg/mL) is used as a substrate. Reactions are terminated by spotting onto nitrocellulose, which is washed with 1M NaCl/1% phosphoric acid (approximately 6 times, 5-10 minutes each). Sheets are dried and the transferred radioactivity quantitated by phosphorimaging.
For instance, one can use Invitrogen's LanthaScreen™ Kinase assay to test the inhibitors of mTOR disclosed herein. This assay is a time resolved FRET platform that measures the phosphorylation of GFP labeled 4EBP1 by mTOR kinase. The kinase reaction is performed in a white 384 well microtitre plate. The total reaction volume is 20 μl per well and the reaction buffer composition is 50 mM HEPES pH7.5, 0.01% Polysorbate 20, 1 mM EGTA, 10 mM MnCl2, and 2 mM DTT. In the first step, each well receives 2 ul of test compound in 20% dimethylsulphoxide resulting in a 2% DMSO final concentration. Next, 8ul of mTOR diluted in reaction buffer is added per well for a 60 ng/ml final concentration. To start the reaction, 10 ul of an ATP/GFP-4EBP1 mixture (diluted in reaction buffer) is added per well for a final concentration of 10 μM ATP and 0.5 μM GFP-4EBP1. The plate is sealed and incubated for 1 hour at room temperature. […] The plate is sealed, incubated for 1 hour at room temperature, and then read on a plate reader set up for LanthaScreen™ TR-FRET. Data is analyzed and IC50s are generated using GraphPad Prism 5.

In general, IC50 refers to the point on the concentration scale where inhibition reaches its midpoint. A word on the EC50: it is the concentration that produces a half-maximal response. On to `CC(C)n1cc(-c2ccc3oc(N)nc3c2)c2c(N)ncnc21` [Compound 8], for which the IC50 on PI3K δ (Table 1) is below 1 µM; at mTOR (Table 1, read-out: mTOR IC50) it was below 0.1 µM; against PI3K α (Table 1), below 1 µM; at PI3K γ (Table 1), below 1 µM; against PI3K β (Table 1) it was above 10 µM. The same compound registered an EC50 with PC3 (Table 1) below 0.1 µM.
`CC(C)n1nc(-c2cc3cccc(O)c3[nH]2)c2c(N)ncnc21` [Compound 11]: the IC50 was 0.1 to 0.5 µM on PI3K δ (Table 2); below 0.005 µM on mTOR (Table 2, read-out: mTORC IC50); 0.025 to 0.05 µM in the assay with PC3; above 0.5 µM at PI3K α (Table 2); 0.1 to 0.5 µM against PI3K γ (Table 2); above 0.5 µM on PI3K β (Table 2).
Take `CC(C)n1nc(-c2cc3cc(O)cc(Cl)c3[nH]2)c2c(N)ncnc21` [Compound 15]: the IC50 against PI3K δ (Table 2) is 0.025 to 0.05 µM; on mTOR (Table 2, read-out: mTORC IC50) it was below 0.005 µM; in the assay with PC3, 0.025 to 0.05 µM; against PI3K α (Table 2), above 0.5 µM; against PI3K γ (Table 2), 0.025 to 0.05 µM; against PI3K β (Table 2), above 0.5 µM.
Turning to `CC(C)n1nc(-c2cc3cc(O)cc(F)c3[nH]2)c2c(N)ncnc21` [Compound 16], the IC50 was 0.05 to 0.1 µM against PI3K δ (Table 2); below 0.005 µM on mTOR (Table 2, read-out: mTORC IC50); 0.1 to 0.5 µM in the assay on PC3; above 0.5 µM at PI3K α (Table 2); 0.1 to 0.5 µM against PI3K γ (Table 2); above 0.5 µM against PI3K β (Table 2).
Take `Nc1ncnc2c1c(-c1cc3cc(O)ccc3[nH]1)nn2C1CCCCC1` [Compound 26]: the IC50 is 0.05 to 0.1 µM against PI3K δ (Table 2); 0.005 to 0.01 µM on mTOR (Table 2, read-out: mTORC IC50); 0.1 to 0.5 µM with PC3; above 0.5 µM against PI3K α (Table 2); 0.1 to 0.5 µM against PI3K γ (Table 2); above 0.5 µM on PI3K β (Table 2).

Values taken from US20130209543A1, “ENHANCED TREATMENT REGIMENS USING MTOR INHIBITORS” (Intellikine LLC, priority 2011, published 2013).
